Laboratory results published in PMC10177380 (Cancers, 2023).
Several values for one entry are separate records, joined by “and”; a condition that tells them apart may be missing. Equal values may be shown once. Read-outs that look alike come from different tables or passages of the source.

What was measured:
[1] = tested on: ADDP ovarian variant (cisplatin-resistant A2780 clone); parameters: method as in PMID 36296713, PMID 36142383; settings: cited from earlier work
H460 lung [2] = tested on: H460 lung; parameters: method as in PMID 36296713, PMID 36142383; settings: cited from earlier work
BE2C neuroblastoma [3] = tested on: BE2C neuroblastoma; parameters: method as in PMID 36296713, PMID 36142383; settings: cited from earlier work
H460 lung [4] = assay: MTT growth inhibition, 72 h, H460; format: cell-based; settings: H460, MTT, 72 h
[5] = tested on: ADDP ovarian variant (cisplatin-resistant A2780 clone); assay: MTT growth inhibition, 72 h, ADDP; format: cell-based; settings: for GI50: ADDP, MTT, 72 h
A431 skin = assay: MTT growth inhibition, 72 h, A431; format: cell-based
MIA pancreas = assay: MTT growth inhibition, 72 h, MIA; format: cell-based
multiple cell lines = assay: MTT growth inhibition, over all cell lines tested; format: cell-based
[6] = Reduction with ascorbic acid (AsA) in PBS followed by 1H-NMR and 1D-195Pt-NMR; format: physicochemical; settings: 37 °C; for Reduction Times T50%: estimated 50% reduction; for Reduction Times T50% / Reduction Times T100%: PBS in D2O; for Reduction Times T100%: estimated 100% reduction; for time of complete reduction to platinum(II) precursor: final 1D-195Pt-NMR at 400 ppm
Protocol: The reduction behaviour of 1–6 was probed via ^1H-NMR and 1D-^195Pt-NMR spectroscopy, as previously described (see Supplementary Materials).
The reduction behaviour of 1–6 was monitored by ^1H-NMR and 1D-^195Pt-NMR spectroscopy using previously established methods. Prior to the reduction measurements, each metal complex was dissolved with PBS in D2O only.
Based on the initial 1D-^195Pt-NMR spectra acquired (Figures S62 and S63), the structural integrity of the complexes was retained, and no signs of reduction were observed, thus also confirming that the PBS had no effect on the complexes. Subsequently, AsA was added in each solution containing the metal complex, PBS and D2O. Then, sequential ^1H-NMR experiments were undertaken for 1 h, followed by final 1D-^195Pt-NMR experiments measured within the regions of 400 and −2800 ppm (Figures S64–S75). The approximate time points for 1–6 at which an estimated 50 and 100% reduction had occurred, in the presence of AsA, as represented by T50% and T100%, are summarised in Table 8.
A sequence of 1H-NMR experiments was carried out for 1 h at 37 °C, followed by 1D-195Pt-NMR within the regions of –2800 and 400 ppm. An amount of 10 mM PBS (~7.4 pH) was transferred to a vial and reduced to dryness through rotary evaporation. AsA (~1 mg) was combined with the metal complex (~5 mg) and transferred to the vial containing the dried PBS. 600 μL of D2O was then added to the vial to dissolve the complex, AsA and the PBS together. Each reaction was followed at 37 °C until the complete reduction […]
The cell lines tested were: HT29 colon, U87 glioblastoma, MCF-7 breast, A2780 ovarian, H460 lung, A431 skin, Du145 prostate, BE2-C neuroblastoma, SJ-G2 glioblastoma, MIA pancreas, ADDP ovarian variant, and the non-tumour derived MCF10A breast line. In […]
agents were prepared in DMSO (30 mM stock solutions) and stored at −20 °C until use.
All cell lines were cultured in a humidified atmosphere 5% carbon dioxide at 37 °C. The cancer cell lines were maintained in Dulbecco’s modified Eagle’s medium (DMEM) (Trace Biosciences, Sydney, NSW, Australia) supplemented with 10% foetal bovine serum, 10 mM sodium bicarbonate penicillin (100 IU mL−1), streptomycin (100 μg mL−1) and glutamine (4 mM). The non-cancer MCF10A cell line was cultured in DMEM:F12 (1:1) cell culture media, 5% heat inactivated horse serum, supplemented with penicillin (50 IU mL−1), streptomycin (50 μg mL−1), 20 mM 4-(2-hydroxyethyl)-1-piperazineethanesulfonic acid (HEPES), L-glutamine (2 mM), epidermal growth factor (20 ng mL−1), hydrocortisone (500 ng mL−1), cholera toxin (100 ng mL−1) and insulin (10 μg mL−1). Cytotoxicity was determined by plating cells in duplicate in […] medium at a density of 2500 – 4000 cells per well in 96 well plates. On day 0 (24 h after plating) when the cells were in logarithmic growth, 100 μL of medium with or without the test agent

U87 glioblastoma = assay: MTT growth inhibition, 72 h, U87; format: cell-based
HT29 colon cells = assay: ROS production, DCFDA/H2DCFDA cellular ROS assay; format: cell-based, human; settings: treatment at GI50 concentration (TBHP positive control 20 μM)
Protocol: To determine the presence of ROS in treated cells, a DCFDA/H2DCFDA-cellular ROS Assay Kit (Abcam, Cambridge, MA, USA) was utilised, as previously reported. The ROS potential of platinum(II) precursors and platinum(IV) scaffolds, which were determined using the same method, were also presented in this study for comparison.
Additionally, the ROS potential of the platinum(II) precursors and platinum(IV) scaffolds was determined previously and was presented here to allow for comparison (Table 10 and Figure 13). […] Treatment with the complexes and ligands was completed at each specific GI50 concentration. […]
dimethylthiazol-2-yl]-2,5-diphenyltetrazolium bromide) assay and absorbance was read at 540 nm. An eight-point dose response curve was produced from which the GI50 value was calculated, representing the drug concentration at which cell growth was inhibited by 50% based on the difference between the optical density values on day 0 and those at the end of drug exposure.
4. Reactive Oxygen Species (ROS) Potential
A total of 25,000 cells/mL of HT29 cells in DMEM were seeded in 96-well plates. Cells were washed with 1X kit buffer, and then stained with 25 μM 2’,7’-dichlorofluorescein diacetate (DCFH-DA) and incubated for 45 min. DCFH-DA was then removed, and cells were then re-washed with 1X kit buffer, after which phenol red free media was added.
Cells were then treated with a GI50 drug concentration for each complex. The plates were directly scanned to measure fluorescence (relative fluorescence units (RFU)) at different time points using the Glo-Max®-Multimode microplate reader (Promega Corporation, Alexandra, VIC, Australia) at an excitation/emission of 485/535 nm. […]

HT29 colon = assay: MTT growth inhibition, 72 h, HT29; format: cell-based, human
BE2C neuroblastoma [7] = assay: MTT growth inhibition, 72 h, BE2C; format: cell-based; settings: for GI50: BE2C, MTT, 72 h
[8] = tested on: non-tumour derived MCF10A breast line; assay: MTT growth inhibition, 72 h, MCF10A; format: cell-based
A2780 ovarian = assay: MTT growth inhibition, 72 h, A2780; format: cell-based
[9] = mean over all cell lines tested, read-out: Mean GI50 Values
[10] = all cell lines, MTT, 72 h, read-out: GI50 values over the cell lines tested

Structure (SMILES)	GI50 [1] [nM]	GI50 (H460 lung [2]) [nM]	GI50 (BE2C neuroblastoma [3]) [nM]	GI50 (H460 lung [4]) [nM]	GI50 [5] [nM]	GI50 (A431 skin) [nM]	GI50 (MIA pancreas) [nM]	GI50 (multiple cell lines; [9]) [nM]	Reduction Times T100% [6]	GI50 (U87 glioblastoma) [nM]	ROS Production (HT29 colon cells; HT29, 24 h) [RFU]	ROS Production (HT29 colon cells; HT29, 48 h) [RFU]	ROS Production (HT29 colon cells; HT29, 72 h)	GI50 (HT29 colon) [nM]	GI50 (BE2C neuroblastoma [7]) [nM]	GI50 [8] [nM]	GI50 (A2780 ovarian) [nM]	also measured
Cc1c(C)c2cccnc2c2ncccc12.N[C@H]1CCCC[C@@H]1N.[Pt] [Complex 56MESS, [Pt^II(5,6-Me2phen)(SS-DACH)]^2+]	13 ± 2	21 ± 2	59 ± 4															
COc1ccc2cc([C@H](C)C(=O)[O][Pt+2]3([OH])[N]4C=CC=c5ccc6c(c54)[N]3C=CC=6)ccc2c1.N[C@H]1CCCC[C@@H]1N [Complex 1, [Pt^IV(phen)(SS-DACH)(NPX)(OH)]^2+]				860 ± 124	400 ± 19	1020 ± 390	660 ± 100	931 ± 139	post 60 min	2570 ± 440	235 ± 23	215 ± 19	63 RFU and 63 ± 7 RFU	400 ± 23	1470 ± 67	450 ± 24	420 ± 50	Reduction Times T50% [6]: 20 to 25 min
Cc1cc2c3c4c1=CC=C[N]4[Pt+2][N]3C=CC=2.N[C@H]1CCCC[C@@H]1N [Complex 5MESS]	34 ± 2	41 ± 5	270 ± 38															
COc1ccc2cc([C@H](C)C(=O)[O][Pt+2]3([OH])[N]4C=CC=c5cc(C)c6c(c54)[N]3C=CC=6)ccc2c1.N[C@H]1CCCC[C@@H]1N (stereo partly drawn) [Complex 2, [Pt^IV(5-Mephen)(SS-DACH)(NPX)(OH)]^2+]				410 ± 37	280 ± 27	530 ± 180	370 ± 54	490 ± 75	post 60 min	1330 ± 190	290 ± 17	261 ± 15	84 RFU and 84 ± 9 RFU	210 ± 19	680 ± 17	310 ± 12	290 ± 56	Reduction Times T50% [6]: 10 to 15 min; time of complete reduction to platinum(II) precursor [6]: ~ 1.5 h
COc1ccc2cc([C@H](C)C(=O)O)ccc2c1 [NPX, naproxen]							> 50000	> 50000		> 50000	187 ± 12	178 ± 13	15 ± 5 RFU					GI50 (H460 lung [4]; Homo sapiens, NCI-H460): > 50000 nM; GI50 ([5]; Cisplatin-resistant A2780): > 50000 nM; GI50 (multiple cell lines; [10]): > 50000 nM; GI50 (HT29 colon; Homo sapiens, HT-29): > 50000 nM; GI50 (BE2C neuroblastoma [7]; Homo sapiens, BE(2)-C): > 50000 nM; GI50 ([8]; Homo sapiens, MCF-10A): > 50000 nM; GI50 (A2780 ovarian; Homo sapiens): > 50000 nM
N.N.[Cl][Pt][Cl] [Cisplatin, cis-diamminedichloroplatinum(II)]	28000	900 ± 200	1900 ± 200								299 ± 25	370 ± 22	392 ± 21 RFU					
COc1ccc2cc([C@H](C)C(=O)[O][Pt+2]3([OH])[N]4C=CC=c5c(C)c(C)c6c(c54)[N]3C=CC=6)ccc2c1.N[C@H]1CCCC[C@@H]1N [Complex 3, [Pt^IV(5,6-Me2phen)(SS-DACH)(NPX)(OH)]^2+]				56 ± 5	25 ± 2	75 ± 33	47 ± 7	84 ± 12	post 60 min	180 ± 23	297 ± 21	287 ± 11	104 RFU and 104 ± 15 RFU	28 ± 6	220 ± 12	36 ± 4	39 ± 9	Reduction Times T50% [6]: 10 to 15 min; time of complete reduction to platinum(II) precursor [6]: ~ 1.5 h
COc1ccc2c(c1)c(CC(=O)OCC(=O)[O][Pt-2]13([OH])([NH2+][C@H]4CCCC[C@@H]4[NH2+]1)[n+]1cccc4ccc5ccc[n+]3c5c41)c(C)n2C(=O)c1ccc(Cl)cc1 [Complex 4, [Pt^IV(phen)(SS-DACH)(ACE)(OH)]^2+]				610 ± 80	330 ± 27	930 ± 490	490 ± 36	735 ± 58	10 to 15 min	1720 ± 140	303 ± 8	298 ± 17	168 RFU and 168 ± 15 RFU	290 ± 30	1300 ± 150	360 ± 29	350 ± 47	fold difference of mean GI50 compared to platinum(II) precursor (multiple cell lines): 1- to 2 fold
COc1ccc2c(c1)c(CC(=O)OCC(=O)O)c(C)n2C(=O)c1ccc(Cl)cc1 [ACE, acemetacin]							> 50000	> 50000		> 50000	279 ± 7	260 ± 9	132 ± 13 RFU					GI50 (H460 lung [4]; Homo sapiens, NCI-H460): > 50000 nM; GI50 ([5]; Cisplatin-resistant A2780): > 50000 nM; GI50 (A431 skin; Homo sapiens, A-431): > 50000 nM; GI50 (multiple cell lines; [10]): > 50000 nM; GI50 (HT29 colon; Homo sapiens, HT-29): > 50000 nM; GI50 (BE2C neuroblastoma [7]; Homo sapiens, BE(2)-C): > 50000 nM; GI50 ([8]; Homo sapiens, MCF-10A): > 50000 nM; GI50 (A2780 ovarian; Homo sapiens): > 50000 nM
C1=C[N]2[Pt+2][N]3C=CC=c4ccc(c2c43)=C1.N[C@H]1CCCC[C@@H]1N [PHENSS]	190 ± 47	360 ± 35	380 ± 46															
COc1ccc2c(c1)c(CC(=O)OCC(=O)[O][Pt-2]13([OH])([NH2+][C@H]4CCCC[C@@H]4[NH2+]1)[n+]1cccc4cc(C)c5ccc[n+]3c5c41)c(C)n2C(=O)c1ccc(Cl)cc1 [Complex 5, [Pt^IV(5-Mephen)(SS-DACH)(ACE)(OH)]^2+]				43 ± 8	9.3 ± 2	60 ± 45	29 ± 14	70 ± 15	10 to 15 min	140 ± 8	313 ± 11	305 ± 10	192 RFU and 192 ± 7 RFU	13 ± 8	250 ± 33	20 ± 5	30 ± 12	fold more potent than cisplatin [5]: 3000 fold; fold decrease of GI50 relative to the platinum(IV) scaffold (BE2C neuroblastoma [7]): 5.6 fold
